The subject of one series is NF-κB target genes. The series can be described thus: qRT-PCR of NF-κB target genes in LPS-stimulated Raw 264.7 cells. Conditions: LPS 1 μg/ml 2 h; for Effect on transcription of NF-κB target genes (COX-2, IL-6, IL-1β, TNF-α, IκBα, iNOS): 50 μM. The class given is cell-based, mouse.
The subject of series [1] is mdx mice. The series can be described thus: Chronic treatment of mdx mice, hematoxylin-eosin histology of TA muscle. It counts as in vivo, mouse. The conditions noted are these: SR 30 mg/kg; for Percentage of area exhibiting necrosis or infiltration, TA muscle: Fig 7C, 8K-NBD 10 mg/kg i.p. 3 times/wk for 4 wk, single mice; for Muscle pathology of TA muscle (hematoxylin-eosin): 8K-NBD 10 mg/kg, 3 times/wk 4 wk. An excerpt:
(§1) Fig 7 NBD mimetics improve muscular pathology and grip strength in mdx mice. (A) Shown is the treatment regimen with NBD mimetics in mdx mice. (B) Hematoxylin–eosin staining of TA muscle from 7-wk-old, treated or untreated mdx mice. Images were taken at magnification of 20×. Representative images were shown for each treatment group. […] (E) TA muscle from 7-wk-old, treated or untreated mdx mice was stained with laminin by IHC to outline myofibers. Overall images of TA muscle were shown on the left side, and the inset panel images were shown on the right side. (F) Quantitation of minimum Feret diameter in centrally and noncentrally nucleated myofibers. (G) Forelimb force determined by grip strength test. Five-wk-old (2 wk post treatment) and 7-wk-old (4 wk post treatment) mdx mice, treated or untreated, were tested for forelimb grip strength. Five sequential tests were performed, and the force was normalized to body weight. Data were shown as mean +/− SEM. Dosages used are as follows: SR12343 (30 mg/kg), SR12460 (30 mg/kg), and 8K-NBD peptide (10 mg/kg). n = 6–7 each group. *P < 0.05, **P < 0.01. Underlying data can be found in S1 Data. eMyHC, embryonic myosin heavy chain; IHC, immunohistochemistry; NBD, NEMO-binding domain; NEMO, NF-κB essential modulator; Pax7, paired box protein 7; qRT-PCR, quantitative real-time polymerase chain reaction; TA, tibialis anterior.
To determine whether SR12343 and SR12460 improve muscle pathology, TA muscle was stained with hematoxylin–eosin to assess inflammatory infiltration, necrosis, central nucleation, and fibrosis. […] In addition, Masson trichrome stain was conducted to further measure muscle fibrosis. Chronic treatment with SR12343 reduced muscle fibrosis (blue) in diaphragm and TA muscle tissues in comparison to control group (Fig 8A & 8B). To further quantitate the extent of inflammation in mdx muscle tissues, diaphragm and TA muscle were immunostained for cluster of differentiation 68 (CD68), a macrophage marker. Treatment with SR12343 reduced the number of CD68^+ cells by almost 50% per myofiber in both diaphragm and TA tissues (Fig 8A & 8B). […] To quantify the average fiber size in an unbiased way, TA muscle was stained with laminin to outline myofibers, and Feret diameter of all myocytes was quantitated in a whole muscle section.
HEK293 cells and MEFs were grown in Dulbecco’s Modified Eagle Medium (with 4.5 g/L glucose and L-glutamine), supplemented with 10% fetal bovine serum, penicillin, and streptomycin. […]
Supplementary file pbio.2004663.s005.tif: S4 Fig Chronic treatment with NBD mimetics improves muscle pathology by inhibiting NF-κB DNA binding activity in mdx mice. (A) Quantification of percentage of centralized myonuclei. […]

Series [2] deals with mdx mice. The series can be described thus: Chronic treatment of mdx mice, forelimb grip strength test. The class given is in vivo, mouse. The conditions noted are these: Fig 7G, single mice.
Description: as §1, with “anterior. To determine whether the NBD mimetics improved muscle strength, grip strength was measured 2 wk and 4 wk post treatment to assess forelimb strength (Fig 7G). […] Seven-wk-old treated or untreated mdx mice were measured for forelimb grip strength by using a digital grip strength meter paired with a metal grid (Bioseb, Vitrolles, France). Mice were allowed to grip the metal grid tightly, and readings were obtained by gently pulling the tail backward until release. Five sequential measurements were performed, and the average force was calculated.” for “anterior.”

The nature of series [3]: Serum AST, ALT and ALP of chronically treated mdx mice. The class given is in vivo, mouse. Conditions: for Liver toxicity (serum AST, ALT, ALP): chronically treated mdx mice, 30 mg/kg; for ALP Final Concentration / ALT Final Concentration / AST Final Concentration: serum, individual mouse (FigS3B).
Setting [4] is: Fig 4C, IKKi VII 2 μM, 8K-NBD 200 μM, SR compounds 50 μM, relative to no LPS.

“And” between values parts separate entries of the source, which are not always exact repeats. Identical values can stand only once.

Regarding `O=C(CNc1ccc(Cl)cn1)NCCc1cccc(Br)c1` [SR12343], in the series on NF-κB target genes (setting [4]), the “COX2 mRNA expression (qRT-PCR)” value was 201.141 and 209.385; the “IL6 mRNA expression (qRT-PCR)” value is 204.868 and 211.79; the “IL-1b mRNA expression (qRT-PCR)” value was 270.981 and 273.172; the “TNFa mRNA expression (qRT-PCR)” value is 84.4509 and 85.4634. Besides, in the series on NF-κB target genes (setting [4]), the “iNOS mRNA expression (qRT-PCR)” value was 6.825 and 6.083; the “ikBa mRNA expression (qRT-PCR)” value was 15.399 and 14.5661. In addition, in the series with NF-κB target genes, the “Effect on transcription of NF-κB target genes (COX-2, IL-6, IL-1β, TNF-α, IκBα, iNOS)” value is “significant inhibition on COX-2, IL-6, and iNOS expression”. Further, in the series on mdx mice [1], the “Percentage of area exhibiting necrosis or infiltration, TA muscle” value is 2% and 3% and 0% and 1%; the “Muscle pathology of TA muscle (hematoxylin-eosin)” value is given as “most significant pathological improvement”. Moreover, in the series with mdx mice [2] (2 week post treatment), the “Forelimb grip strength, force normalized to body weight” value is recorded as “significantly improved forelimb strength”. In addition, the “Forelimb grip strength, force normalized to body weight” value in the series with mdx mice [2] (2 week post treatment, listed as SR 12343) was 3.61 and 3.7248 and 3.659 and 4.054. In the series with mdx mice [2] (4 week post treatment), the “Forelimb grip strength, force normalized to body weight” value is 4.866 and 4.5019 and 4.825 and 4.175 and 4.644 and 3.675 and 4.427. Moreover, in series [3], the “Liver toxicity (serum AST, ALT, ALP)” value was “no overt liver toxicity”; the “ALP Final Concentration” value was 170 U/L and 225 U/L and 145 U/L; the “ALT Final Concentration” value is 125 U/L and 160 U/L and 150 U/L and 260 U/L; the “AST Final Concentration” value is 775 U/L and 1030 U/L and 875 U/L and 1560 U/L.
Turning to `O=C(CNCCc1cc(F)cc(F)c1)Nc1ccc(Cl)cn1` [SR12460], in the series with NF-κB target genes (setting [4]), the “COX2 mRNA expression (qRT-PCR)” value was 38.9806 and 69.3201 and 44.3249; the “IL-1b mRNA expression (qRT-PCR)” value came out at 108.936; the “iNOS mRNA expression (qRT-PCR)” value was 2.289 and 2.778. Moreover, the “Effect on transcription of NF-κB target genes (COX-2, IL-6, IL-1β, TNF-α, IκBα, iNOS)” value in the series with NF-κB target genes is given as “significantly inhibit the transcription of all NF-κB target genes tested”. In the series on mdx mice [1], the “Percentage of area exhibiting necrosis or infiltration, TA muscle” value is 3% and 6%; the “Muscle pathology of TA muscle (hematoxylin-eosin)” value was “improved muscle pathology, although not as effectively as SR12343”. Moreover, in the series with mdx mice [2] (2 week post treatment), the “Forelimb grip strength, force normalized to body weight” value was 5.738 and 3.226 and 3.35. For the same compound, the “Forelimb grip strength, force normalized to body weight” value with mdx mice [2] (4 week post treatment) was 5.455 and 4.515 and 5.487 and 3.928 and 4.07 and 4.448. Further, in series [3], the “Liver toxicity (serum AST, ALT, ALP)” value is “no overt liver toxicity”; the “ALP Final Concentration” value was 195 U/L and 170 U/L and 160 U/L; the “ALT Final Concentration” value is 215 U/L and 185 U/L; the “AST Final Concentration” value is 1245 U/L and 1330 U/L and 1415 U/L.

These data come from paper PMC6013238, “Development of novel NEMO-binding domain mimetics for inhibiting IKK/NF-κB activation” (PLoS Biology, 2018).
